The results in this text go back to US12378277B2, “SGLTS/DPP4 inhibitor and application thereof” (DONGBAO PURPLE STAR (HANGZHOU) BIOPHARMACEUTICAL CO., LTD., priority 2019, dated 2025).

As a reminder, the pIC50 is the negative decadic logarithm of the IC50, by convention in mol/L.

The structures appear in SMILES notation. pIC50: −log10 of the molar value. Marks after values point to notes of the source that are not given here.

In one experiment the test system is SD rat. Kind of experiment: Rat oral glucose tolerance test (OGTT) in vivo. The settings on record: 10 mg/kg single gavage. As for the experimental part: 1. Animal: [table] 2. Experiment Grouping: [table] Experiment Process: 1. Animal Adaptation and Preparation: The experimental animals needed to be acclimatized in the animal room for 1 week after arriving at the facility. 2. Fasting and Administration The animals were fasted for 18 h in the metabolic cage, and drugs or solvents (2 mL/kg) were given according to the above table, and then 50% glucose solution (2 g/kg, 4 mL/kg) was administrated immediately. 3. Urine and Blood Sugar Test Two hours after the animals were given sugar, they resumed eating. The time points of 0 min, 15 min, 30 min, 45 min, 60 min and 120 min were collected for blood glucose determination; urine during 0-24 h was used for urine sugar (mg/200 g) and urine volume test respectively. 4. Data Analysis: All values will be expressed as average values. Statistical analysis was evaluated using Graphpad Prism 6 one-way analysis of variance Tukey's multiple comparison test. P value of less than 0.05 was considered of statistically significant.

For a further experiment, the target named is Human-SGLT1 (Homo sapiens (Human), UniProt P13866). The experiment can be described thus: SGLT1 glucose transport test. The format is cell-based. The settings on record: cells stably expressing Human-SGLT1; [14C]-labeled methyl α-D-glucopyranoside uptake, 37° C., 2 hours. The protocol: • Biological activity experiment 1: SGLT1 glucose transport test 1. Experimental Purpose:
The effect of the compound on the glucose transport activity of the SGLT1 transporter was detected through measuring the amount of [^14C]-labeled glucose entering the cells with high expression of Human-SGLT1.
The cells stably expressing Human-SGLT1 used in the experiment were constructed by Shanghai WuXi AppTec. The SGLT1 cells were plated on a Cytostar-T (PerkinElmer) 96-well cell culture plate, and cultured overnight at 5% CO2 at 37° C.
2.2. SGLT1 Glucose Transport Test
1) Experimental buffer: 10 mM 4-hydroxyethylpiperazine ethanesulfonic acid (HEPES), 1.2 mM magnesium chloride (MgCl2), 4.7 mM potassium chloride (KCl), 2.2 mM calcium chloride (CaCl2) and 120 mM sodium chloride (NaCl).
2) The compound was diluted with 100% dimethyl sulfoxide (DMSO) with 1 mM as the starting concentration and 8 points of 5-fold serial dilutions.
3) 3 μM [^14C]-labeled methyl α-D-glucopyranoside was prepared with experimental buffer.
4) The cells were treated with 49 μL of experimental buffer, 1 μL of the compound which was gradient diluted, and 50 μL of 3 μM [^14C] isotope-labeled sugar solution at 37° C. for 2 hours.
5) The isotope detector (Micro beta Reader) was used to read.
6) The data was calculated by GraphPad Prism 5.0 software: log(inhibitor) vs. response—Variable slope to obtain the IC50 value of the test compound. The experimental results were shown in Table 3. • Biological activity experiment 2: SGLT2 glucose transport test 1.

The target of a further experiment is Human-SGLT2 (Homo sapiens (Human), UniProt P31639). The experiment can be described thus: SGLT2 glucose transport test. Type of experiment: cell-based. The settings on record: cells stably expressing Human-SGLT2; [14C]-labeled methyl α-D-glucopyranoside uptake, 37° C., 2 hours. The protocol:
6) The data was calculated by GraphPad Prism 5.0 software: log(inhibitor) vs. response—Variable slope to obtain the IC50 value of the test compound. The experimental results were shown in Table 3. • Biological activity experiment 2: SGLT2 glucose transport test 1. Experimental Purpose:
The effect of the compound on the glucose transport activity of the SGLT2 transporter was detected through measuring the amount of [^14C]-labeled glucose entering the cells with high expression of Human-SGLT2.
The cells stably expressing Human-SGLT2 used in the experiment were constructed by Shanghai WuXi AppTec. The SGLT2 cells were plated on a 96-well cell culture plate (Greiner) and cultured overnight at 5% CO2 at 37° C.
2.2. SGLT2 Glucose Transport Test
1) Experimental buffer: 10 mM 4-hydroxyethylpiperazine ethanesulfonic acid (HEPES), 1.2 mM magnesium chloride (MgCl2), 4.7 mM potassium chloride (KCl), 2.2 mM calcium chloride (CaCl2)) and 120 mM sodium chloride (NaCl).
2) Termination buffer: 10 mM 4-hydroxyethylpiperazine ethanesulfonic acid (HEPES), 1.2 mM magnesium chloride (MgCl2), 4.7 mM potassium chloride (KCl), 2.2 mM calcium chloride (CaCl2), 120 mM sodium chloride (NaCl) and 1 μM LX4211.
3) The compound was diluted with 100% dimethyl sulfoxide (DMSO) with a starting concentration of 10 μM and 8 points of 5-fold serial dilution.
4) 6 μM [^14C]-labeled methyl α-D-glucopyranoside was prepared with experimental buffer.
5) The cells were treated with 49 μL of experimental buffer, 1 μL of gradient diluted compound, and 50 μL of 6 μM [^14C]isotope-labeled sugar solution at 37° C. for 2 hours.
6) The liquid in the well was aspirated and the cells were rinsed 3 times with termination buffer.
7) The cells were lysed with 50 μL of 10% sodium hydroxide solution, the cell lysate was aspirated into the scintillation tube, and 2 mL of scintillation fluid was added.
8) An isotope detector (Tricarb) was used to read.
9) The data was calculated by GraphPad Prism 5.0 software: log(inhibitor) vs. response—Variable slope to obtain the IC50 value of the test compound. The experimental results were shown in Table 3. • Biological activity experiment 3: rhDPP4 inhibitor screening experiment 1.

Experiment [1] concerns the target recombinant human dipeptidyl peptidase 4 (rhDPP4) (Homo sapiens (Human), UniProt P27487). The experiment can be described thus: rhDPP4 inhibitor screening experiment. Type of experiment: biochemical. The settings on record: Gly-Pro-aminoluciferin substrate, luminescence, room temperature 1 hour. As for the experimental part: 9) The data was calculated by GraphPad Prism 5.0 software: log(inhibitor) vs. response—Variable slope to obtain the IC50 value of the test compound. The experimental results were shown in Table 3. • Biological activity experiment 3: rhDPP4 inhibitor screening experiment 1. Experimental Purpose:
The inhibitory activity of the compounds on recombinant human dipeptidyl peptidase 4 (rhDPP4) was evaluated by measuring the median inhibitory concentration (IC50) value of the compounds. In this experiment, rhDPP4 was used to catalyze a substrate to produce luciferin, and reacted with luciferase to produce light signals, wherein the substrate is the luminescent precursor glycine-proline-[…] (Gly-Pro-aminoluciferin). The intensity of the light signal is directly proportional to the enzyme activity.
1) 250 nL of gradient diluted compound (4 times dilution, 10 detection concentrations) was transferred to a 384-well plate (PerkingElmer-6007299) using a non-contact nano-upgraded acoustic pipetting system (ECHO). The concentration of dimethylsulfoxide (DMSO) concentration was 0.5% in the final reaction system. Blank control wells (containing DMSO, substrate and 10 mM of tris(hydroxymethyl)aminomethane hydrochlorid (Tris-HCl)) and positive control wells (containing DMSO, substrate and rhDPP4) were set.
2) The pre-packed frozen buffer containing luciferase was taken out and restored to room temperature, and then added with substrate to prepare a working solution with a substrate concentration of 20 μM. The rhDPP4 was prepared as a 0.2 ng/mL working solution with 10 mM Tris-HCl (pH8.0) aqueous solution.
3) 25 μL of working solution containing 20 μM substrate and 25 μL of working solution containing 0.2 ng/mL rhDPP4 were added to the 384-well plate with the compound added already. The plate was centrifuged at 1000 rpm for 30 s. The plate was sealed with aluminum foil sealing film and incubated at room temperature for 1 hour.
4) The light signal intensity was detected with a multi-function enzyme label detector EnVision. […]

Sequence of recombinant human dipeptidyl peptidase 4 (rhDPP4) (P27487 whole entry): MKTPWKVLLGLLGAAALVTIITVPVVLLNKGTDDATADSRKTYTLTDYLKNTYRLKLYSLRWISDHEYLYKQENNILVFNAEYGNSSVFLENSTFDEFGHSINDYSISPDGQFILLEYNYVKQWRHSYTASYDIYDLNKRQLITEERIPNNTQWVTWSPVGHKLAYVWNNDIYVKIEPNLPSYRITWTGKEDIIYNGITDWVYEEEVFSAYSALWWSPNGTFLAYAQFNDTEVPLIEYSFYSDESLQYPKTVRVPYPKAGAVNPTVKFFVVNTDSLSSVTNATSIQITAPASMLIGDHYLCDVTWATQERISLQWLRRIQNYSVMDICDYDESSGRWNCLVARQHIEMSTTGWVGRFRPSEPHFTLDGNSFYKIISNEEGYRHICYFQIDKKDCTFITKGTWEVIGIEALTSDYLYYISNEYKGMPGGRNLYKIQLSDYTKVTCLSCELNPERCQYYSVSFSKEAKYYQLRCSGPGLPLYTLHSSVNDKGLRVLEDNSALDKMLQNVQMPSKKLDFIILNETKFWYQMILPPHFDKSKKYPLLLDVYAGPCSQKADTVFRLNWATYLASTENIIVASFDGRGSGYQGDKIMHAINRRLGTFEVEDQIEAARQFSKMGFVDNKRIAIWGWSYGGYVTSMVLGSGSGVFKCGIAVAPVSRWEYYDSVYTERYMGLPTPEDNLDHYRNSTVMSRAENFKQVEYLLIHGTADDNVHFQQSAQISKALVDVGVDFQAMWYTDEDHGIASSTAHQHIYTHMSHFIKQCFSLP
Sequence of Human-SGLT1 (P13866 whole entry): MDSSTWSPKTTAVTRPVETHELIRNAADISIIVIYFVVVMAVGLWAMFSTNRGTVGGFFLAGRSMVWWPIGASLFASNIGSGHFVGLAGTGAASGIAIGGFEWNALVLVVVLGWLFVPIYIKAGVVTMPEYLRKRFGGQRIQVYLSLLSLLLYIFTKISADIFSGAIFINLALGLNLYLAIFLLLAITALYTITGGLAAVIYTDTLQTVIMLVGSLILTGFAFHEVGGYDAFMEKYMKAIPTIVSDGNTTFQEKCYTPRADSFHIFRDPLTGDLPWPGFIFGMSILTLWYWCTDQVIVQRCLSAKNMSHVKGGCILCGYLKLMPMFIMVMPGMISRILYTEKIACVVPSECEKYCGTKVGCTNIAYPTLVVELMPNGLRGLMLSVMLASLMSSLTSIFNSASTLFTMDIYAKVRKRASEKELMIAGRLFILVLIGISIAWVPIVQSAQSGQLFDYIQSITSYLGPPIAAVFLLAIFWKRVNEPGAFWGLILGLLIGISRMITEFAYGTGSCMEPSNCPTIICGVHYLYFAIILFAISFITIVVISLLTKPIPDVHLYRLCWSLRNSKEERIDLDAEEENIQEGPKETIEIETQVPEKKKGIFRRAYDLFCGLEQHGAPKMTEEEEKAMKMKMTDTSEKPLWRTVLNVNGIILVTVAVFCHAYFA
Sequence of Human-SGLT2 (P31639 whole entry): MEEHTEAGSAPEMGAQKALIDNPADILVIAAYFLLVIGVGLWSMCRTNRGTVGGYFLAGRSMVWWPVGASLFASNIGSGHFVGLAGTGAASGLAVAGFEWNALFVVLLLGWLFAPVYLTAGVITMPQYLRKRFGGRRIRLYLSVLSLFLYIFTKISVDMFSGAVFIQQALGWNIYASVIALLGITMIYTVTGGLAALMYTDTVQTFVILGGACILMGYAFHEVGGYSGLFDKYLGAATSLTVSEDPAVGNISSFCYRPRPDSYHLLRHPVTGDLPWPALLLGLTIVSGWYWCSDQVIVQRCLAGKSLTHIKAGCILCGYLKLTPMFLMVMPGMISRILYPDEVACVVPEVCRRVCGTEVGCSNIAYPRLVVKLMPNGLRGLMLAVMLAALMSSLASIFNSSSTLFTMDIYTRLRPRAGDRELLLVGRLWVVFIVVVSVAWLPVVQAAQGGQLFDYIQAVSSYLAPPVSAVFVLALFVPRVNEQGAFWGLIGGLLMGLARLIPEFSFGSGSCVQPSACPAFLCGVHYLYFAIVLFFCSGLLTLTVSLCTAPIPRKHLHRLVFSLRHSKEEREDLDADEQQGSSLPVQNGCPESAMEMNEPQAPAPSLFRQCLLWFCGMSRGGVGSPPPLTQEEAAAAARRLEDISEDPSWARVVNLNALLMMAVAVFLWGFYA

`CCOc1ccc(Cc2cc([C@@H]3O[C@H](SC)[C@@H](O)[C@H](O)[C@H]3O)ccc2Cl)cc1` [Soagliflozin, Sotagliflozin] had an OGTT glucose level AUC0-2 hr in the experiment with SD rat (then 50% glucose solution 2 g/kg, solvent control group 1079) of 917 mmol/L/min. The Urine sugar level in the experiment on SD rat (urine during 0-24 h, solvent control group 0.4) is reported as 2913**** mg/200 g BW. Moreover, the Urine volume in the experiment with SD rat (urine during 0-24 h, solvent control group 16.8) was 32.2**** mL/200 g BW.
Turning to `CCc1ccc([C@@H]2O[C@H](SC)[C@@H](O)[C@H](O)[C@H]2O)cc1Cc1ccc(OC2CCN(C3CO[C@H](c4cc(F)ccc4F)[C@@H](N)C3)CC2)cc1` (some centres unmarked) [WXD007], the pIC50 at Human-SGLT1 was 8.47; against Human-SGLT2, 8.84; in experiment [1], 6.29.
The matching figures for `CCc1ccc([C@@H]2O[C@H](SC)[C@@H](O)[C@H](O)[C@H]2O)cc1Cc1ccc(O[C@@H]2CCN([C@H]3CO[C@H](c4cc(F)ccc4F)[C@@H](N)C3)C2)c(C)c1` [WXD010]: 6.84, 7.67 and 6.78.
`CCc1ccc([C@@H]2O[C@H](SC)[C@@H](O)[C@H](O)[C@H]2O)cc1Cc1ccc(O[C@@H]2CCN([C@H]3CO[C@H](c4cc(F)ccc4F)[C@@H](N)C3)C2)c(C)c1` [WXD011]: the negative logarithm of the IC50 (pIC50) at Human-SGLT1 is 7.35; against Human-SGLT2, 7.99.
Regarding `CS[C@H]1O[C@@H](c2ccc(C(C)C)c(Cc3ccc(O[C@@H]4CCN([C@H]5CO[C@H](c6cc(F)ccc6F)[C@@H](N)C5)C4)cc3)c2)[C@H](O)[C@@H](O)[C@@H]1O` [WXD012], the pIC50 is 7.95 at Human-SGLT1, 8.21 at Human-SGLT2 and 6.50 in experiment [1].
